Results as given in patent publication EP0403591B1, “CRF ANALOGS” (THE SALK INSTITUTE FOR BIOLOGICAL STUDIES, priority 1988, dated 1994).
Entries after “also recorded” stand apart in the source; their conditions may differ. Non-standard residues stand in square brackets, D forms with d. Residues, ends and D or L forms follow the SMILES beside them. No end group written: not given here. *: point of attachment. Nle = CCCC[C@H](N)C(=O)O; Bz = O=C(c1ccccc1)*

Tests used:
[1] = Lowering of blood pressure (in vivo testing, general procedure of Example III); conditions: testing by the general procedure of Example III
[2] = test system: cultured rat pituitary cells; assay: Secretion of ACTH and β-endorphin by cultured rat pituitary cells (procedure of Example III); format: cell-based; conditions: for secretion of ACTH and β-END-LI: testing by the general procedure of Example III (in vitro and in vivo); for EC50: stimulation of secretion of ACTH and β-endorphin by cultured rat pituitary cells, read-out: Half-maximal responses (concentration)
Description: The synthetic peptide from Example I and synthetic oCRF are examined for their effects on the secretion of ACTH and β-endorphin in vitro and also in vivo.
The potency of synthetic oCRF to stimulate the secretion of ACTH and β-endorphin by cultured rat pituitary cells is measured using the procedure as generally set forth in Endocrinology, 91, 562 (1972). Half-maximal responses are observed at concentrations of the peptide very substantially less than the synthetic oCRF concentrations of about 250 picomolar which are needed to achieve this response. In vivo testing is carried out using the general procedure set forth in C. Rivier et al., Science, 218, 377 (1982), and biological potency is ascertained.

[3] = background statement; in mammals; cited from earlier work
[4] = background statement; cited from earlier work
[5] = test system: ACTH and β-endorphin; conditions: background statement; in vitro and in vivo; cited from earlier work
[6] = administered into the ventricles, rats; cited from earlier work

| Compound | lowering of blood pressure [1] | secretion of ACTH and β-END-LI [2] | also measured |
| --- | --- | --- | --- |
| CCCC[C@H](NC(=O)[C@H](Cc1c[nH]cn1)NC(=O)[C@H](CC(C)C)NC(=O)[C@H](CCCC)NC(=O)[C@H](CCC(=O)O)NC(=O)[C@H](CCCNC(=N)N)NC(=O)[C@H](CC(C)C)NC(=O)[C@H](CC(C)C)NC(=O)[C@H](Cc1c[nH]cn1)NC(=O)[C@H](Cc1ccccc1)NC(=O)[C@@H](NC(=O)[C@H](CC(C)C)NC(=O)[C@H](CC(=O)O)NC(=O)[C@H](CC(C)C)NC(=O)[C@H](CO)NC(=O)[C@@H](NC(=O)[C@@H]1CCCN1C(=O)[C@@H]1CCCN1)[C@@H](C)CC)[C@@H](C)O)C(=O)N[C@@H](C)C(=O)N[C@@H](CCCNC(=N)N)C(=O)N[C@@H](C)C(=O)N[C@@H](CCC(=O)O)C(=O)N[C@@H](CCC(N)=O)C(=O)N[C@@H](CCC(=O)O)C(=O)N[C@@H](C)C(=O)N[C@@H](CCC(=O)O)C(=O)N[C@@H](CCC(N)=O)C(=O)N[C@@H](C)C(=O)N[C@@H](CC(C)C)C(=O)N[C@@H](CC(C)C)C(=O)N[C@@H](CC(N)=O)C(=O)N[C@@H](CCCNC(=N)N)C(=O)N[C@@H](CC(N)=O)C(=O)N[C@@H](CC(C)C)C(=O)N[C@@H](CC(C)C)C(=O)N[C@@H](CCC(=O)O)C(=O)N[C@@H](CCC(=O)O)C(=O)N[C@@H](C)C(N)=O [XVII] (H-PPISLDLTFHLLRE[Nle]LH[Nle]ARAEQEAEQALLNRNLLEEA-NH2) | very significant lowering of blood pressure | stimulates the secretion of ACTH and β-END-LI |  |
| CC[C@H](C)[C@H](NC(=O)[C@H](CC(=O)O)NC(=O)[C@H](CC(C)C)NC(=O)[C@H](CC(C)C)NC(=O)[C@H](CCCCN)NC(=O)[C@H](CCCNC(=N)N)NC(=O)[C@H](CC(N)=O)NC(=O)[C@H](CO)NC(=O)[C@H](Cc1c[nH]cn1)NC(=O)[C@H](C)NC(=O)[C@H](CCC(N)=O)NC(=O)[C@H](CCC(N)=O)NC(=O)[C@H](C)NC(=O)[C@H](CC(C)C)NC(=O)[C@H](CCC(N)=O)NC(=O)[C@H](CC(=O)O)NC(=O)[C@H](C)NC(=O)[C@H](CCCCN)NC(=O)[C@@H](NC(=O)[C@H](CCSC)NC(=O)[C@H](CCC(=O)O)NC(=O)[C@H](CC(C)C)NC(=O)[C@@H](NC(=O)[C@H](CCC(=O)O)NC(=O)[C@H](CCCNC(=N)N)NC(=O)[C@H](CC(C)C)NC(=O)[C@H](CC(C)C)NC(=O)[C@H](Cc1c[nH]cn1)NC(=O)[C@H](Cc1ccccc1)NC(=O)[C@@H](NC(=O)[C@H](CC(C)C)NC(=O)[C@H](CC(=O)O)NC(=O)[C@H](CC(C)C)NC(=O)[C@H](CO)NC(=O)[C@@H](NC(=O)[C@@H]1CCCN1C(=O)[C@@H]1CCCN1C(=O)[C@H](CCC(=O)O)NC(=O)[C@H](CCC(N)=O)NC(=O)[C@@H](N)CO)[C@@H](C)CC)[C@@H](C)O)C(C)C)[C@@H](C)O)C(=O)N[C@@H](C)C(N)=O [oCRF, ovine CRF] |  |  | EC50 [2]: ~0.25 nM; lowering blood pressure [3]: biological activity in lowering blood pressure; also recorded: substantially lower blood pressure for an extended time period; gastric acid production [4]: inhibits gastric acid production; secretion of ACTH and β-endorphin [5]: stimulating the secretion of ACTH and β-endorphin; also recorded: stimulate ACTH and β-endorphin activities in vitro and in vivo |
| Ac-PPISLDLTFHLLREVLHMARAEQLAEQAHSNRNLMEEI-NH2 [VII, [Acetyl-Pro⁴, His²⁰, Glu^29,40, Asn³⁶]-rCRF(4-41)] | very significant lowering of blood pressure to a greater extent than rCRF | stimulates the secretion of ACTH and β-END-LI |  |
| Bz-GEEPPISLDLT[Nle]HLLREVLHMARAEQLAQQAHSNRRLMEII-NH2 [VI, [Benzoyl-Gly¹, Nle¹², His²⁰, Arg³⁶]-rCRF] | very significant lowering of blood pressure | stimulates the secretion of ACTH and β-END-LI |  |
| CRF: corticotropin releasing factor, species not specified (SEEPPISLDLTFHLLREVLEMARAEQLAQQAHSNRKLMEII; ends and bridges not checked; UniProt P06850 154-194, looked up) |  |  | activity and learning performance [6]: increases activity and improves learning performance |
| Rat CRF (SEEPPISLDLTFHLLREVLEMARAEQLAQQAHSNRKLMEII; ends and bridges not checked; UniProt P01143 145-185, looked up) [rCRF, hentetracontapeptide; formula of human CRF is the same as that of rCRF] |  |  | lowering blood pressure [3]: substantially lower blood pressure for an extended time period; secretion of ACTH and β-endorphin [5]: stimulate ACTH and β-endorphin activities in vitro and in vivo |
| SEEPPISLDLTFHLLREVLHMARAEGLAQQAHSNRKLMEII-NH2 [IV, [His²⁰, Gly²⁶)-rCRF] | very significant lowering of blood pressure | stimulates the secretion of ACTH and β-END-LI |  |
| SEEPPISLDLTFHLLREVLHMARAEQLAQQAHSNRKLMEII-NH2 [Example I, [His²⁰]-rCRF] |  |  | EC50 [2]: < 0.25 nM |
| SEEPPISLDLTFHLLREVLHRARAEQLAQQALINRKLMEII-NH2 [IX, [His²⁰, Arg²¹, Leu³², Ile³³]-rCRF] | very significant lowering of blood pressure to a greater extent than rCRF | stimulates the secretion of ACTH and β-END-LI |  |
| SEEPPISLDLTFHLLREVLH[Nle]ARAEQLAQQALINRKLMEEI-NH2 [VIII, [His²⁰, Nle²¹, Leu³², Ile³³, Glu⁴⁰]-rCRF] | very significant lowering of blood pressure to a greater extent than rCRF | stimulates the secretion of ACTH and β-END-LI |  |
| SEEPPISLELTFHLLREVLH[Nle]ARAEQLAEQAHINRKLMEII-NH2 [V, [Glu⁹, His²⁰, Nle²¹, Glu²⁹, Ile³³]-rCRF] | very significant lowering of blood pressure to a greater extent than rCRF | stimulates the secretion of ACTH and β-END-LI |  |
| SQEPPISLDLTFHLLREMLHRAKAEQEAEQAAINRLLLEEA-NH2 [XIX] | very significant lowering of blood pressure | stimulates the secretion of ACTH and β-END-LI |  |
| SQEPPISLDLTFHLLREVLHMTKADQLAQQAHSNRNLLDIA-NH2 [XIV, [His²⁰, Asn³⁶]-oCRF] | very significant lowering of blood pressure | stimulates the secretion of ACTH and β-END-LI |  |
| SQEPPISLDLTFHLLREVLH[Nle]TKADQLAQQAHSNRKLLDIA-NH2 [XV, [His²⁰, Nle²¹]-oCRF] | very significant lowering of blood pressure | stimulates the secretion of ACTH and β-END-LI |  |
| SQEPPISLDLTFHLLRE[Nle]LH[Nle]AKAEQEAEQAALNRLLLEEA-NH2 [XI] | very significant lowering of blood pressure | stimulates the secretion of ACTH and β-END-LI |  |
| SQEPPISLDLTFHMLREMLHMAKMEQEAEQAALNRLLLEEA-NH2 [XVIII] | very significant lowering of blood pressure | stimulates the secretion of ACTH and β-END-LI |  |
| SQEPPISLDLTFHMLREMLHRAKMEGEAEQALINRNLLEEA-NH2 [XIII] | very significant lowering of blood pressure | stimulates the secretion of ACTH and β-END-LI |  |
| SQEPPISLELTFHLLRE[Nle]LHRAKAEQEAEQAALNRLLLEEA-NH2 [X] | very significant lowering of blood pressure | stimulates the secretion of ACTH and β-END-LI |  |
| SQ[dY]PPISLDLTFHLLRE[Nle]LH[Nle]AKAGQEAEQAALNRLLLEEA-NH2 [XII] | very significant lowering of blood pressure | stimulates the secretion of ACTH and β-END-LI |  |
| Sauvagine |  |  | lowering blood pressure [3]: biological activity in lowering blood pressure; secretion of ACTH and β-endorphin [5]: stimulating the secretion of ACTH and β-endorphin |
| [D-Pro⁴, His²⁰]-oCRF(4-41) [XVI] | very significant lowering of blood pressure | stimulates the secretion of ACTH and β-END-LI |  |
